According to US20230263822A1, “MODULATION OF FACTOR 11 EXPRESSION” (Ionis Pharmaceuticals, Inc., priority 2008, published 2023):
e = 2'-O-(2-methoxyethyl) (MOE); d = 2'-deoxy (DNA)

How the values were obtained:
[1] = rat, in vivo, sc, 50 mg/kg
[2] = rat, in vivo, sc, 50 mg/kg; remark: listed apart in the source
[3] = rat, in vivo, sc, 50 mg/kg; remark: listed apart in the source
human Factor 11 mRNA [4] = test: Dose-dependent inhibition of human Factor 11 in HepG2 cells, electroporation 123.46-10,000 nM (Example 31); assay type: cell-based; settings: for Percent inhibition of Factor 11 mRNA at 123.47 nM / Percent inhibition of Factor 11 mRNA at 370.37 nM / Percent inhibition of Factor 11 mRNA at 1,111.11 nM / Percent inhibition of Factor 11 mRNA at 3,333.33 nM / Percent inhibition of Factor 11 mRNA at 10,000.0 nM: approx. 16 hours, relative to untreated control cells; for Percent inhibition of Factor 11 mRNA at 1,111.11 nM: electroporation, 1,111.11 nM; for Percent inhibition of Factor 11 mRNA at 3,333.33 nM: electroporation, 3,333.33 nM; for Percent inhibition of Factor 11 mRNA at 10,000.0 nM: electroporation, 10,000.0 nM
How it was run: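 HepG2 cells were electroporated with antisense oligonucleotide at 123.46, 370.37, 1,111.11, 3,333.33 and 10,000 nM and harvested about 16 hours later. Factor 11 mRNA was quantified by qRT-PCR and normalised to total RNA (RIBOGREEN). Inhibition is expressed relative to untreated cells.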

human Factor 11 mRNA [5] = test: Antisense inhibition of human Factor 11 in HepG2 cells, electroporation, 8,000 nM (Example 30); assay type: cell-based; settings: electroporation, 8,000 nM antisense oligonucleotide
How it was run: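 HepG2 cells electroporated with 8,000 nM 5-10-5, 5-8-5 or 6-8-6 MOE gapmers (phosphorothioate, 5-methylcytidine), ~24 h. Factor 11 mRNA quantified by qRT-PCR, normalised to RIBOGREEN total RNA. Reported as percent inhibition versus untreated cells.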

[6] = design: species or system Sprague-Dawley rats; settings: rat, in vivo, sc, 20 mg/kg
Method: The concentration of the full-length oligonucleotide as well as the total oligonucleotide concentration (including the degraded form) was measured. The method used is a modification of previously published methods (Leeds et al., 1996; Geary et al., 1999) which consist of a phenol-chloroform (liquid-liquid) extraction followed by a solid phase extraction. An internal standard (ISIS 355868, a 27-mer 2′-O-methoxyethyl modified phosphorothioate oligonucleotide, […], designated herein as SEQ ID NO: 270) was added prior to extraction. […] The results are presented in Tables 91 and 92, expressed as μg/g liver or kidney tissue. Half-lives were then calculated using WinNonlin software ([…]).

human Factor 11 mRNA [7] = test: Antisense inhibition of human Factor 11 in HepG2 cells by microwalk gapmers, lipofectin, 75 nM (Example 3); assay type: cell-based; settings: HepG2 cells, lipofectin, gapmers targeted to nucleobases 1275 to 1318 of SEQ ID NO: 1
How it was run: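 HepG2 cells (10,000/well) were transfected via lipofectin with 75 nM 20-mer MOE gapmers (phosphorothioate, 5-methyl-C) for about 24 h. Factor 11 mRNA was measured by qRT-PCR, normalized to RIBOGREEN total RNA, and given as percent inhibition versus untreated cells.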

[8] = design: species or system CD1 mice; settings: mouse, in vivo, sc, 50 mg/kg
Method: The concentration of the full-length oligonucleotide was measured. The method used is a modification of previously published methods (Leeds et al., 1996; Geary et al., 1999) which consist of a phenol-chloroform (liquid-liquid) extraction followed by a solid phase extraction. An internal standard (ISIS 355868, a 27-mer 2′-O-methoxyethyl modified phosphorothioate oligonucleotide, […], designated herein as SEQ ID NO: 270) was added prior to extraction. […] The results are presented in Table 85 expressed as μg/g liver tissue.

[9] = Viscosity of ISIS antisense oligonucleotides, micro-viscometer at 25 °C (Example 47); assay type: physicochemical; settings: for Concentration: concentration of the viscosity sample, UV reading at 260 nM at 85° C.; for Viscosity: in water, micro-viscometer at 25° C., at the concentration of the same line
How it was run: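 Oligonucleotide (32-35 mg) was dissolved in 120 μL water by heating at 50° C, and viscosity was measured by micro-viscometer at 25° C. Concentration was checked by UV at 260 nm at 85° C on a dilution in water. Screening cut-off: >40 cP at 165-185 mg/mL.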

human Factor 11 mRNA [10] = test: Dose-dependent antisense inhibition of human Factor 11 in HepG2 cells, lipofectin 9.375-150 nM (Example 2); assay type: cell-based; settings: ~16 h
Method: Cells were plated at a density of 10,000 cells per well and transfected using lipofectin reagent with 9.375 nM, 18.75 nM, 37.5 nM, 75 nM, and 150 nM concentrations of antisense oligonucleotide, as specified in Table 3. After a treatment period of approximately 16 hours, RNA was isolated from the cells and Factor 11 mRNA levels were measured by quantitative real-time PCR. Human Factor 11 primer probe set RTS 2966 (forward sequence: […], incorporated herein as SEQ ID NO: 3; reverse sequence: […], incorporated herein as SEQ ID NO: 4; probe sequence: TTGTCTACTGAAGCACACCCAAACAGGGAX, incorporated herein as SEQ ID NO: 5) was used to measure mRNA levels. Factor 11 mRNA levels were adjusted according to total RNA content, as measured by RIBOGREEN. Results are presented as percent inhibition of Factor 11, relative to untreated control cells.

human Factor 11 mRNA [11] = test: Antisense inhibition of human Factor 11 in HepG2 cells, lipofectin, 75 nM (Example 1); assay type: cell-based; settings: 75 nM antisense oligonucleotide, ~24 h, relative to untreated control cells, gapmers targeted to SEQ ID NO: 1
How it was run: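 HepG2 cells transfected via lipofectin with 75 nM antisense oligonucleotide (5-10-5 MOE gapmers, 20-mers, phosphorothioate, 5-methylcytidines), treated ~24 h. Factor 11 mRNA quantified by real-time PCR, normalised to RIBOGREEN total RNA; percent inhibition versus untreated cells.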

| Substance | HCT [1] [%] | MCH [1] | MCHC [1] [%] | MCV [1] | Platelets [1] | RBC [1] | WBC [1] [nL⁻¹] | hemoglobin [1] [g/dL] | lymphocytes [1] [%] | monocytes [1] [%] | neutrophils [1] [%] | BUN [2] [mg/dL] | Creatinine [2] [mg/dL] | ALT [3] [IU/L] | AST [3] [IU/L] | Albumin [3] | Bilirubin [3] [mg/dL] | Percent inhibition of human Factor 11 mRNA levels (human Factor 11 mRNA [5]) [%] | Half-life of ISIS oligonucleotides in the liver and kidney [6] [days] | Half-Life in the liver [8] [days] | also measured |
| --- | --- | --- | --- | --- | --- | --- | --- | --- | --- | --- | --- | --- | --- | --- | --- | --- | --- | --- | --- | --- | --- |
| ISIS 416892: 3-14-3 MOE gapmer GCCCTTCATGTCTAGGTCCA (sugars from the 5' end e3 d14 e3, backbone and methylation of C not given here) | 13 | 2 | 0 | 1 | 66 10^3/μL | 12 | 68 | 14 | 18 | 58 | 92 | 188 | 1 | 113 | 183 | 8 | 1 | – | – | – | – |
| ISIS 416825: 5-10-5 MOE gapmer GCCCTTCATGTCTAGGTCCA (sugars from the 5' end e5 d10 e5, backbone and methylation of C not given here) | 2 | 2 | 4 | 4 | 6 10^3/μL | 2 | 22 | 2 | 3 | 15 | 25 | 7 | 17 | 89 | 17 | 2 | 4 | – | – | – | – |
| ISIS 416925: MOE gapmer, nucleobases 1275 to 1318 of SEQ ID NO: 1 (Table 8) (antisense GGTGCACAGTTTCTGGCAGG; MOE gapmer, wing and gap sizes not given here) | 8 | 2 | 4 | 5 | 8 10^3/μL | 6 | 24 | 6 | 4 | 23 | 20 | 7 | 5 | 102 | 20 | 5 | 13 | – | – | – | – |
| ISIS 416826: 5-10-5 MOE gapmer ATGCCCTTCATGTCTAGGTC (sugars from the 5' end e5 d10 e5, backbone and methylation of C not given here) | 7 | 3 | 4 | 6 | 11 10^3/μL | 5 | 7 | 7 | 5 | 7 | 30 | 25 | 6 | 611 | 104 | 6 | 115 | – | – | – | – |
| 416861 (antisense GCGGACGGCATTGGTGCACA; 5-10-5 gapmer, further chemistry not given here) [compound 416861] | – | – | – | – | – | – | – | – | – | – | – | – | – | – | – | – | – | 90 | 25 | 24.5 | Percent inhibition of Factor 11 mRNA at 123.47 nM (human Factor 11 mRNA [4]; electroporation): 0%; Percent inhibition of Factor 11 mRNA at 370.37 nM (human Factor 11 mRNA [4]; electroporation): 15%; Percent inhibition of Factor 11 mRNA at 1,111.11 nM (human Factor 11 mRNA [4]): 27%; Percent inhibition of Factor 11 mRNA at 3,333.33 nM (human Factor 11 mRNA [4]): 66%; Percent inhibition of Factor 11 mRNA at 10,000.0 nM (human Factor 11 mRNA [4]): 80%; IC50 (human Factor 11 mRNA [4]; electroporation, Factor 11 mRNA expression): 2000 nM; % inhibition (human Factor 11 mRNA [7]): 92%; Concentration [9]: 110 mg/mL; Viscosity [9]: 14 cP |
| ISIS 416999: MOE gapmer, nucleobases 1275 to 1318 of SEQ ID NO: 1 (Table 8) (antisense GCACAGTTTCTGGCAGGCCT; MOE gapmer, wing and gap sizes not given here) | 5 | 3 | 1 | 2 | 12 10^3/μL | 5 | 12 | 6 | 3 | 20 | 23 | 2 | 4 | 92 | 28 | 5 | 54 | – | – | – | – |
| 416860 (antisense CGGACGGCATTGGTGCACAG; 5-10-5 gapmer, further chemistry not given here) [compound 416860] | – | – | – | – | – | – | – | – | – | – | – | – | – | – | – | – | – | 89 | 21 | 20.6 | Percent inhibition of Factor 11 mRNA at 123.47 nM (human Factor 11 mRNA [4]; electroporation): 0%; Percent inhibition of Factor 11 mRNA at 370.37 nM (human Factor 11 mRNA [4]; electroporation): 28%; Percent inhibition of Factor 11 mRNA at 1,111.11 nM (human Factor 11 mRNA [4]): 39%; Percent inhibition of Factor 11 mRNA at 3,333.33 nM (human Factor 11 mRNA [4]): 41%; Percent inhibition of Factor 11 mRNA at 10,000.0 nM (human Factor 11 mRNA [4]): 40%; % inhibition (human Factor 11 mRNA [7]): 88%; Concentration [9]: 154 mg/mL; Viscosity [9]: >100 cP |
| 413481 (antisense GGTGCACAGTTTCTGGCAGG; 5-10-5 MOE gapmer, further chemistry not given here) [compound 413481] | – | – | – | – | – | – | – | – | – | – | – | – | – | – | – | – | – | 82 | 21 | 20.6 | percent inhibition of Factor 11 at 9.375 nM (human Factor 11 mRNA [10]; 9.375 nM): 22%; percent inhibition of Factor 11 at 18.75 nM (human Factor 11 mRNA [10]; 18.75 nM): 38%; percent inhibition of Factor 11 at 37.5 nM (human Factor 11 mRNA [10]; 37.5 nM): 56%; percent inhibition of Factor 11 at 75 nM (human Factor 11 mRNA [10]; 75 nM): 67%; percent inhibition of Factor 11 at 150 nM (human Factor 11 mRNA [10]; 150 nM): 83%; IC50 (human Factor 11 mRNA [10]): 32 nM; % inhibition (human Factor 11 mRNA [11]): 86%; Concentration [9]: 144 mg/mL; Viscosity [9]: 23 cP |
| ISIS 417003: MOE gapmer, nucleobases 1275 to 1318 of SEQ ID NO: 1 (Table 8) (antisense TGGTGCACAGTTTCTGGCAG; MOE gapmer, wing and gap sizes not given here) | 8 | 4 | 4 | 6 | 19 10^3/μL | 11 | 83 | 11 | 3 | 6 | 17 | 9 | 9 | 138 | 23 | 6 | 50 | – | – | – | – |
